In patent US11202773B2, “Locally bioavailable drugs” (UNIVERSITY OF HOUSTON SYSTEM, priority 2015, dated 2021):

Assays:
human COX-2 = target: T1, human COX-2 (Homo sapiens, UniProt P35354); assay: COX-2 activity (PGE2 production) in HCA-7 cells after A23187; assay type: cell-based; design: HCA-7 is a human colon cancer cell line in which COX-2 protein is constitutively expressed; endogenous in cells; host or cells: HCA-7; conditions: 30 min pre-incubation, 10 μM A23187, another 30 minutes
T1 sequence (P35354 18-604): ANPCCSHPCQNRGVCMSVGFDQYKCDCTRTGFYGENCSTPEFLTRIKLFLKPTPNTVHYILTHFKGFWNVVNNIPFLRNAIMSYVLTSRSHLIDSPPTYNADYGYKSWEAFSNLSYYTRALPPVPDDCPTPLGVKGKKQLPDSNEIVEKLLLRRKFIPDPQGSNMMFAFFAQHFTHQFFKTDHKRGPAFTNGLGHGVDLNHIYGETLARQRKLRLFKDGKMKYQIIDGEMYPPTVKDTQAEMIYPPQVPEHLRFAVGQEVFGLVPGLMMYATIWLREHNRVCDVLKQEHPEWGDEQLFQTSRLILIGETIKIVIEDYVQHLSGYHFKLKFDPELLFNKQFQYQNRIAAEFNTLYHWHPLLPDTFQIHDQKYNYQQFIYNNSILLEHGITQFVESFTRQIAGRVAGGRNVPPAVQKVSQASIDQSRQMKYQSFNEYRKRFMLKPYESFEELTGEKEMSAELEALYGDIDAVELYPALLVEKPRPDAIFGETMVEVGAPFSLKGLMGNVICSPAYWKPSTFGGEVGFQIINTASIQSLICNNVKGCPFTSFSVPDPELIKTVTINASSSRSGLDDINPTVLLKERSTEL
Method: (§1) First, the inhibitory effects of the new synthesized compounds on COX-2 were assayed in two cell lines: Raw264.7 cells and HCA-7 cells. Raw264.7 is a mouse macrophage cell line which expresses a high level of COX-2 protein upon lipopolysaccharide (LPS) induction. […] The concentration of prostaglandins (both PGD2 and PGE2) accumulated in the cell culture medium can be employed as an indicator of COX-2 activity. HCA-7 is a human colon cancer cell line in which COX-2 protein is constitutively expressed. Briefly, the cells were pre-incubated with different concentrations of the new compounds for 30 min, and then 10 μM A23187 (a calcium ionophore) was added to release membrane-bound arachidonic acid (the natural substrate of COX-2) to the cytosolic domain. The system was incubated for another 30 minutes and PGE2 concentrations in the culture medium were determined. In both cell lines, higher PGD2/PGE2 concentrations in the media meant more COX-2 activity.

Raw264.7 cells = assay: Metabolism of the phenolics by Raw264.7 cells; assay type: in vitro ADME, mouse; conditions: 1 μM compound, 14 hours
Method: FIG. 4A is a bar graph illustration of the metabolism of the phenolics by Raw264.7 cells. Raw264.7 cells were incubated with 0.1 μg/mL LPS and 1 μM 6a1, 6a2 or 6a3, respectively. 14 hours later the concentrations of PGD2, the phenolics (i.e., aglycones, solid bars), and their phase II metabolites (open bars for glucuronides and shade bars for sulfates) were determined in the medium. Less PGD2 production means inhibition of COX-2 enzyme.
Glucuronidation of 6a1 in Raw264.7 cells was not influenced by LPS (FIG. 4B). […] The results of these experiments initially indicate that when characterizing inhibitory effects of the phenolics on COX-2, the importance of metabolic stability should be brought into consideration. This could be why phenolics were not considered to be active against COX-2 in many published reports using cellular COX-2 assays.

recombinant human COX-1 = recombinant human COX-1 (Homo sapiens, UniProt P23219); assay: In vitro enzyme assay, recombinant human COX-1; assay type: biochemical; conditions: read-out: IC50 against recombinant human COX-1
Sequence of recombinant human COX-1 (P23219 24-599): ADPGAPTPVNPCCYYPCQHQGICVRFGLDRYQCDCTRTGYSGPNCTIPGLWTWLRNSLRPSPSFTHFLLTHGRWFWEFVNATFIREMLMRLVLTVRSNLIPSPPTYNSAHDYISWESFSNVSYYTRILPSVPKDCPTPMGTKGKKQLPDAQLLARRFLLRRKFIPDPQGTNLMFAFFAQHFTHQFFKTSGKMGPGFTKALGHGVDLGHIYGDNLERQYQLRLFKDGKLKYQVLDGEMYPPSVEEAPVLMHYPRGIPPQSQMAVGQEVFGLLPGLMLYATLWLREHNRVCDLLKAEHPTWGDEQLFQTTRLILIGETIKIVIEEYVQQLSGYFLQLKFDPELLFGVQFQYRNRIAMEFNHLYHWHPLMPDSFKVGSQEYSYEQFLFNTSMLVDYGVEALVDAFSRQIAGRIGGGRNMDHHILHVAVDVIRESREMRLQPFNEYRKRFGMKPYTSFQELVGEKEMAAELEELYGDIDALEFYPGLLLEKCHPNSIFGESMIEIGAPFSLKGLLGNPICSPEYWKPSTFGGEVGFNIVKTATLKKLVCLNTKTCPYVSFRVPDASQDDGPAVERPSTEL

mouse COX-2 = target: T2, mouse COX-2 (Mus musculus, UniProt Q05769); assay: COX-2 activity (PGD2/PGE2 production) in LPS-induced Raw264.7 cells; assay type: cell-based; conditions: for IC50: 0.1 μg/mL LPS, 14 hours co-incubation; for PGD2 production, % of control / PGD2 production by Raw264.7 cells: LPS, 14 hours; for PGD2 production by Raw264.7 cells: 1 μM compound, result in words
T2 construct: Raw264.7 is a mouse macrophage cell line which expresses a high level of COX-2 protein upon lipopolysaccharide (LPS) induction; endogenous in cells; host or cells: Raw264.7 (LPS-induced)
T2 sequence (Q05769 18-604): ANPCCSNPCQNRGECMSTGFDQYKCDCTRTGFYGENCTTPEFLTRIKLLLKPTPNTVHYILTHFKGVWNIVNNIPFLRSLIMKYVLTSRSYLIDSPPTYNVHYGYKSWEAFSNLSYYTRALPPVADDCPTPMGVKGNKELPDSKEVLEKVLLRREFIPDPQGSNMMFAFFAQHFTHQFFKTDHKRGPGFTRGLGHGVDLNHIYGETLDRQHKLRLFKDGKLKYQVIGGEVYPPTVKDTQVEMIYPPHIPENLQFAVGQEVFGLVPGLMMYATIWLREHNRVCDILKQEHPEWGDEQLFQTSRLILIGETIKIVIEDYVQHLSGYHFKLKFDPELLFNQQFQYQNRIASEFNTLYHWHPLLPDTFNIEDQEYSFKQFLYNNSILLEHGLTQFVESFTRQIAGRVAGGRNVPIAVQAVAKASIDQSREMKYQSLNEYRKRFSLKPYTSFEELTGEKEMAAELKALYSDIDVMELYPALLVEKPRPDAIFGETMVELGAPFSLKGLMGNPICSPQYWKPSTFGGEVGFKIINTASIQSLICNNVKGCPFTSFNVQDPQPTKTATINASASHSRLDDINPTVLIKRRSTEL
Method: as §1

rat liver microsomes = assay: Glucuronidation by rat liver microsomes; assay type: in vitro ADME
Method: FIG. 5A is a bar graph illustrating in vitro metabolism of phenolics via glucuronidation pathway. Glucuronidation rates of all the new locally bioavailable COX-2 inhibitors by rat liver microsomes. Additional metabolic rates of various locally bioavailable COX-2 inhibitors are in Table 3. […]. The incubation systems were: for glucuronidation, 0.88 mM magnesium chloride (MgCl2), 4.4 mM saccharolactone, 0.022 mg/mL alamethicin, 3.5 mM uridine 5′-diphospho-glucuronic acid (UDPGA), 10 μM substrates and different concentrations of microsomes in 50 mM potassium phosphate buffer (pH 7.4); for sulfation, 10 mM dithiothreitol (DTT), 5 mM MgCl2, 100 μM 3′-phosphoadenosine-5′-phosphosulfate (PAPS),10 μM substrate and different concentrations of S9 fractions in 50 mM potassium phosphate buffer (pH 7.4).
In vitro tools were employed to help predict the in vivo metabolism rates of the COX-2 inhibitors that are phenolics. The microsomes and S9 fractions prepared from colon or liver were used to determine the in vivo glucuronidation and sulfation rates of the phenolic compounds, respectively. By employing microsomes and S9 fractions prepared from both rats and humans, it could be determined if the results obtained in the rat model could be reasonably extrapolated to humans. In these experiments, raloxifene and genistein, two phenolic compounds which undergo extensive first-pass metabolism, were selected as controls.

Row | Structure (SMILES) | IC50 (human COX-2) | Form recovered in medium at the end of incubation (Raw264.7 cells) | IC50 (recombinant human COX-1) | IC50 (mouse COX-2) | PGD2 production, % of control (mouse COX-2; 1 μM 6a1, with glucuronidase (200 units/mL)) | PGD2 production, % of control (mouse COX-2; 1 μM 6a1, without glucuronidase) | PGD2 production by Raw264.7 cells (mouse COX-2) | Glucuronidation by rat liver microsomes (FIG. 5A) (rat liver microsomes) | Glucuronidation rates by liver microsomes (Mean) (rat liver microsomes)
1 | Cc1ccc(-c2cc(COc3ccccc3O)nn2-c2ccc(S(N)(=O)=O)cc2)cc1 [Compound 6a1] | 0.195 ± 0.03 µM | recovered exclusively as their glucuronides | 5.13 µM | 1.39 ± 0.384 µM | 24.3 % of control | 67.5 % of control | only slightly reduced | rapidly glucuronidated | 6299 pmol/mg/min
2 | Cc1ccc(-c2cc(COc3cccc(O)c3)nn2-c2ccc(S(N)(=O)=O)cc2)cc1 [Compound 6a2] | 0.134 ± 0.018 µM | recovered exclusively as their glucuronides | 27.2 µM | 4.62 ± 1.34 µM | – | – | only slightly reduced | rapidly glucuronidated | 3570 pmol/mg/min
3 | Cc1ccc(-c2cc(COc3ccc(O)cc3)nn2-c2ccc(S(N)(=O)=O)cc2)cc1 [Compound 6a3] | 0.064 ± 0.005 µM | stayed as aglycone | 38.2 µM | 0.019 ± 0.002 µM | – | – | thoroughly inhibited | – | 590 pmol/mg/min
